Data published in patent US5030760A, “Tetrahydrophthalimides, and their production and use” (Sumitomo Chemical Company, Ltd., priority 1981, dated 1991).

Test system: corn
Assay: Test Example 1, foliar treatment, phytotoxicity to corn; further: ranges in brackets are in %
Type: in vivo
Settings: 1.25 g/are, 3 weeks
Protocol: (§1) The application of the tetrahydrophthalimides (I) as herbicides will be illustratively shown in the following Examples wherein the phytotoxicity to cultivated plants and the herbicidal activity on weeds were evaluated as follows: the aerial parts of the test plants were cut off and weighed (fresh weight); the percentage of the fresh weight of the treated plant to that of the untreated plant was calculated with the latter fresh weight taken as 100; and the crop damage and the herbicidal activity were evaluated by the standard given in the table below. The rating values of phytotoxicity, 0 and 1, and those of herbicidal effect, 5 and 4, are generally regarded as satisfactory to protect cultivated plants and control weeds, respectively. The rating values in the paddy field test alone were calculated from the dry weight of the test plants.
(§2) Plastic beakers (diameter, 10 cm; height, 10 cm) were filled with upland field soil, and the seeds of corn, barnyardgrass, wild oat, wild mustard and velvetleaf were separately sown in the beakers and grown for 2 weeks in the greenhouse. A designed amount of the test compound was sprayed to the foliage of the test plants by means of a small hand sprayer. After the spraying, the test plants were further grown for 3 weeks in the greenhouse, and herbicidal activity was examined. In this foliar treatment, the test compounds were formulated into an emulsifiable concentrate according to Preparation Example 2 and applied at a spray volume of 5 liters per are by dispersing it in water with the addition of a spreading agent.

Question: `CCCOc1cc(N2C(=O)C3=C(CCCC3)C2=O)c(F)cc1Cl` [compound 3] was tested. Which “Phytotoxicity, Corn” value did it give?
Answer: The value was 0 (100).

Same assay, conditions: 5 g/are, 3 weeks

Question: With `CCCOc1cc(N2C(=O)C3=C(CCCC3)C2=O)c(F)cc1Cl` [compound 3] as the compound, how does the “Phytotoxicity, Corn” value read?
Answer: The value was 1 (90-99).

Test system: barnyardgrass
Assay: Test Example 1, foliar treatment, herbicidal activity; on Herbicidal activity, Barnyardgrass: ranges in brackets are in %; on Herbicidal activity, Velvetleaf: ranges in brackets are in %; on Herbicidal activity, Wild cat: ranges in brackets are in %
Type: in vivo, Echinochloa crus-galli
Settings: 1.25 g/are, 3 weeks
Protocol: as §1, §2

Question: How did the “Herbicidal activity, Barnyardgrass” value turn out when `CCCOc1cc(N2C(=O)C3=C(CCCC3)C2=O)c(F)cc1Cl` [compound 3] was run?
Answer: Its value is 4 (1-10).

Same assay, conditions: 5 g/are, 3 weeks

Question: `CCCOc1cc(N2C(=O)C3=C(CCCC3)C2=O)c(F)cc1Cl` [compound 3] was tested. Which “Herbicidal activity, Barnyardgrass” value did it give?
Answer: Its value is 5 (0).

Test system: wild oat
Assay: as above
Type: in vivo, Avena fatua
Settings: 1.25 g/are, 3 weeks
Protocol: as §1, §2

Question: How did the “Herbicidal activity, Wild cat” value turn out when `CCCOc1cc(N2C(=O)C3=C(CCCC3)C2=O)c(F)cc1Cl` [compound 3] was run?
Answer: Its value is 4 (1-10).

Same assay, conditions: 5 g/are, 3 weeks

Question: `CCCOc1cc(N2C(=O)C3=C(CCCC3)C2=O)c(F)cc1Cl` [compound 3] was tested. Which “Herbicidal activity, Wild cat” value did it give?
Answer: Its value is 5 (0).

Test system: wild mustard
Assay: as above
Type: in vivo, Brassica kaber
Settings: 1.25 g/are, 3 weeks
Protocol: as §1, §2

Question: `CCCOc1cc(N2C(=O)C3=C(CCCC3)C2=O)c(F)cc1Cl` [compound 3] was tested. Which “Herbicidal activity, Wild mustard” value did it give?
Answer: The value was 5 (0).

Same assay, conditions: 5 g/are, 3 weeks

Question: Which “Herbicidal activity, Wild mustard” value does the source give for `CCCOc1cc(N2C(=O)C3=C(CCCC3)C2=O)c(F)cc1Cl` [compound 3] here?
Answer: Its value is 5 (0).

Test system: velvetleaf
Assay: as above
Type: in vivo, Abutilon theophrasti
Settings: 1.25 g/are, 3 weeks
Protocol: as §1, §2

Question: Which “Herbicidal activity, Velvetleaf” value does the source give for `CCCOc1cc(N2C(=O)C3=C(CCCC3)C2=O)c(F)cc1Cl` [compound 3] here?
Answer: The value was 5 (0).

Same assay, conditions: 5 g/are, 3 weeks

Question: For `CCCOc1cc(N2C(=O)C3=C(CCCC3)C2=O)c(F)cc1Cl` [compound 3], which “Herbicidal activity, Velvetleaf” value is on record?
Answer: The value was 5 (0).

Test system: corn
Assay: Test Example 3, soil surface spraying, phytotoxicity to corn; further: ranges in brackets are in %
Type: in vivo
Settings: 5 g/are, 20 days
Protocol: as §1
(§3) Plastic trays (35 cm×25 cm×15 cm) were filled with upland field soil, and the seeds of tall morningglory, velvetleaf and sicklepod and the seeds of corn were sown therein. A designed amount of the test compounds formulated into a wettable powder according to Preparation Example 1 was dispersed in water and applied by spraying at a spray volume of 5 liters per are to the whole surface of the soil. After the spraying, the test plants were placed in a greenhouse and grown for 20 days, and herbicidal activity and phytotoxicity were examined.

Question: `CCCOc1cc(N2C(=O)C3=C(CCCC3)C2=O)c(F)cc1Cl` [compound 3] was tested. Which “Phytotoxicity, Corn” value did it give?
Answer: The value was 0 (100).

Same assay, conditions: 10 g/are, 20 days

Question: With `CCCOc1cc(N2C(=O)C3=C(CCCC3)C2=O)c(F)cc1Cl` [compound 3] as the compound, how does the “Phytotoxicity, Corn” value read?
Answer: Its value is 0 (100).

Test system: tall morningglory
Assay: Test Example 3, soil surface spraying, herbicidal activity; further: ranges in brackets are in %
Type: in vivo, Ipomoea purpurea
Settings: 5 g/are, 20 days
Protocol: as §1, §3

Question: Which “Herbicidal activity, Tall morningglory” value does the source give for `CCCOc1cc(N2C(=O)C3=C(CCCC3)C2=O)c(F)cc1Cl` [compound 3] here?
Answer: Its value is 4 (1-10).

Same assay, conditions: 10 g/are, 20 days

Question: With `CCCOc1cc(N2C(=O)C3=C(CCCC3)C2=O)c(F)cc1Cl` [compound 3] as the compound, how does the “Herbicidal activity, Tall morningglory” value read?
Answer: The value was 5 (0).

Test system: sicklepod
Assay: as above
Type: in vivo, Cassia obtusifolia
Settings: 5 g/are, 20 days
Protocol: as §1, §3

Question: For `CCCOc1cc(N2C(=O)C3=C(CCCC3)C2=O)c(F)cc1Cl` [compound 3], which “Herbicidal activity, Sicklepod” value is on record?
Answer: Its value is 4 (1-10).

Same assay, conditions: 10 g/are, 20 days

Question: How did the “Herbicidal activity, Sicklepod” value turn out when `CCCOc1cc(N2C(=O)C3=C(CCCC3)C2=O)c(F)cc1Cl` [compound 3] was run?
Answer: Its value is 5 (0).

Test system: velvetleaf
Assay: as above
Type: in vivo, Abutilon theophrasti
Settings: 5 g/are, 20 days
Protocol: as §1, §3

Question: `CCCOc1cc(N2C(=O)C3=C(CCCC3)C2=O)c(F)cc1Cl` [compound 3] was tested. Which “Herbicidal activity, Velvetleaf” value did it give?
Answer: The value was 5 (0).

Same assay, conditions: 10 g/are, 20 days

Question: `CCCOc1cc(N2C(=O)C3=C(CCCC3)C2=O)c(F)cc1Cl` [compound 3] was tested. Which “Herbicidal activity, Velvetleaf” value did it give?
Answer: The value was 5 (0).

Test system: corn
Assay: Test Example 4, pre-emergence treatment, phytotoxicity to corn; further: ranges in brackets are in %
Type: in vivo
Settings: 2.5 g/are, 20 days
Protocol: as §1
(§4) Plastic beakers (diameter, 10 cm; height, 10 cm) were filled with upland field soil, and the seeds of corn, cotton and soybean and the seeds of morningglory, velvetleaf, Johnsongrass and green foxtail were separately sown in the beakers. A designed amount of the test compound was sprayed over the top by means of a small hand sprayer. After the spraying, the test plants were grown for 20 days in the greenhouse, and herbicidal activity and phytotoxicity were examined. In this pre-emergence treatment, the test compounds were formulated into an emulsifiable concentrate according to Preparation Example 2 and applied at a spray volume of 5 liters per are by dispersing it in water with the addition of a spreading agent.

Question: `CCCOc1cc(N2C(=O)C3=C(CCCC3)C2=O)c(F)cc1Cl` [compound 3] was tested. Which “Phytotoxicity, Corn” value did it give?
Answer: The value was 0 (100).

Same assay, conditions: 10 g/are, 20 days

Question: For `CCCOc1cc(N2C(=O)C3=C(CCCC3)C2=O)c(F)cc1Cl` [compound 3], which “Phytotoxicity, Corn” value is on record?
Answer: Its value is 1 (90-99).

Test system: morningglory
Assay: Test Example 4, pre-emergence treatment, herbicidal activity; further: ranges in brackets are in %
Type: in vivo
Settings: 2.5 g/are, 20 days
Protocol: as §1, §4

Question: With `CCCOc1cc(N2C(=O)C3=C(CCCC3)C2=O)c(F)cc1Cl` [compound 3] as the compound, how does the “Herbicidal activity, Morningglory” value read?
Answer: The value was 4 (1-10).

Same assay, conditions: 10 g/are, 20 days

Question: `CCCOc1cc(N2C(=O)C3=C(CCCC3)C2=O)c(F)cc1Cl` [compound 3] was tested. Which “Herbicidal activity, Morningglory” value did it give?
Answer: Its value is 4 (1-10).

Test system: velvetleaf
Assay: as above
Type: in vivo, Abutilon theophrasti
Settings: 2.5 g/are, 20 days
Protocol: as §1, §4

Question: `CCCOc1cc(N2C(=O)C3=C(CCCC3)C2=O)c(F)cc1Cl` [compound 3] was tested. Which “Herbicidal activity, Velvetleaf” value did it give?
Answer: Its value is 5 (0).

Same assay, conditions: 10 g/are, 20 days

Question: Which “Herbicidal activity, Velvetleaf” value does the source give for `CCCOc1cc(N2C(=O)C3=C(CCCC3)C2=O)c(F)cc1Cl` [compound 3] here?
Answer: The value was 5 (0).

Test system: Johnsongrass
Assay: as above
Type: in vivo, Sorghum halepense
Settings: 2.5 g/are, 20 days
Protocol: as §1, §4

Question: With `CCCOc1cc(N2C(=O)C3=C(CCCC3)C2=O)c(F)cc1Cl` [compound 3] as the compound, how does the “Herbicidal activity, Johnsongrass” value read?
Answer: Its value is 4 (1-10).

Same assay, conditions: 10 g/are, 20 days

Question: For `CCCOc1cc(N2C(=O)C3=C(CCCC3)C2=O)c(F)cc1Cl` [compound 3], which “Herbicidal activity, Johnsongrass” value is on record?
Answer: Its value is 5 (0).

Test system: green foxtail
Assay: as above
Type: in vivo, Setaria viridis
Settings: 2.5 g/are, 20 days
Protocol: as §1, §4

Question: With `CCCOc1cc(N2C(=O)C3=C(CCCC3)C2=O)c(F)cc1Cl` [compound 3] as the compound, how does the “Herbicidal activity, Green foxtail” value read?
Answer: The value was 4 (1-10).

Same assay, conditions: 10 g/are, 20 days

Question: How did the “Herbicidal activity, Green foxtail” value turn out when `CCCOc1cc(N2C(=O)C3=C(CCCC3)C2=O)c(F)cc1Cl` [compound 3] was run?
Answer: Its value is 5 (0).
